Patent publication US7511145B2 (Genelabs Technologies, Inc., priority 2003, dated 2009)

Biological target: T1, HCV-NS5b (Hepatitis C virus genotype 1b, UniProt Q9WMX2)
T1 construct: (His)6 (C); made in house; host or cells: XL-1 cells (E. coli), IPTG-inducible plasmid, nickel-NTA purification
Test: HCV-NS5b enzyme assay (incorporation of radiolabeled UTP)
Format: biochemical
Settings: for inhibition at 33 µM: enzyme inhibition at compound concentration of 33 uM; for inhibition at 100 µM: read-out: % inh@100, enzyme inhibition at compound concentration of 100 uM
How it was run: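 His6-tagged NS5b lacking the C-terminal 21 residues, expressed in XL-1 and Ni-NTA purified. Reaction at pH 7.5 with 5 mM MgCl2, 10 μM each NTP including [3H]-UTP and biotinylated HCV heteropolymeric template, 2 h at 37° C; SPA read-out; % inhibition at 100 and 33 uM versus no-compound control, background subtracted.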

Row | SMILES | inhibition at 33 µM [%] | inhibition at 100 µM [%]
1 | Cc1onc(-c2ccc(Cl)cc2)c1-c1ccc2cc(-c3nc4cc(C(=O)O)ccc4n3C3CCCCC3)ccc2n1 [Compound 396, 2-{2-[3-(4-chloro-phenyl)-5-methyl-isoxazol-4-yl]-quinolin-6-yl}-1-cyclohexyl-1H-benzoimidazole-5-carboxylic acid] | 100 | 100
2 | Cc1cc(-c2nc3cc(C(=O)O)ccc3n2C2CCCCC2)cc2ccc(-c3ccccc3)nc12 [Compound 397, 1-Cyclohexyl-2-(8-methyl-2-phenyl-quinolin-6-yl)-1H-benzoimidazole-5-carboxylic acid] | 95.6 | 99.3
3 | O=C(O)c1ccc2c(c1)nc(-c1ccc3nc(-c4ccccc4)cc(NCCCCO)c3c1)n2C1CCCCC1 [Compound 398, 1-cyclohexyl-2-[4-(4-hydroxy-butylamino)-2-phenyl-quinolin-6-yl]-1H-benzoimidazole-5-carboxylic acid] | 59.6 | 92
4 | CC(C)(C)OC(=O)NCCNc1cc(-c2ccccc2)nc2ccc(-c3nc4cc(C(=O)O)ccc4n3C3CCCCC3)cc12 [Compound 399, 2-[4-(2-tert-butoxycarbonylamino-ethylamino)-2-phenyl-quinolin-6-yl]-1-cyclohexyl-1H-benzoimidazole-5-carboxylic acid] | 95.6 | 102
5 | COc1ccc(-c2ccc(N(C)C)cc2)c(-c2ccc3cc(-c4nc5cc(C(=O)O)ccc5n4C4CCCCC4)ccc3n2)c1 [Compound 401, 1-cyclohexyl-2-[2-(4′-dimethylamino-4-methoxy-biphen-2-yl)-quinolin-6-yl]-1H-benzoimidazole-5-carboxylic acid] | 100 | 101
6 | COc1ccc(-c2ccc(Cl)c(Cl)c2)c(-c2ccc3cc(-c4nc5cc(C(=O)O)ccc5n4C4CCCCC4)ccc3n2)c1 [Compound 403, 1-cyclohexyl-2-[2-(3′,4′-dichloro-4-methoxy-biphen-2-yl)-quinolin-6-yl]-1H-benzoimidazole-5-carboxylic acid] | 99.4 | 99.9
7 | CCOc1ccc([N+](=O)[O-])cc1-c1ccc2cc(-c3nc4cc(C(=O)O)ccc4n3C3CCCCC3)ccc2n1 [Compound 404, 1-cyclohexyl-2-[2-(2-ethoxy-5-nitro-phenyl)-quinolin-6-yl]-1H-benzoimidazole-5-carboxylic acid] | 102 | 101
8 | O=C(O)c1ccc2c(c1)nc(-c1ccc3ccc(-c4ccccc4)nc3c1)n2C1CCCCC1 [Compound 405, 1-Cyclohexyl-2-(2-phenyl-quinolin-7-yl)-1H-benzoimidazole-5-carboxylic acid] | 90.5 | 98.9
9 | O=C(O)c1ccc2c(c1)nc(-c1ccc3nc(-c4ccccc4)c(-c4ccccc4)nc3c1)n2C1CCCCC1 [Compound 406, 1-Cyclohexyl-2-(2,3-diphenylquinoxalin-6-yl)-1H-benzimidazole-5-carboxylic acid] | 97.3 | 98.1
10 | O=C(O)c1ccc2c(c1)nc(-c1cc3ccc(-c4ccccc4-c4ccc(Cl)cc4)nc3cc1F)n2C1CCCCC1 [Compound 408, 2-[2-(4′-Chloro-biphen-2-yl)-7-fluoro-quinolin-6-yl]-1-cyclohexyl-1H-benzoimidazole-5-carboxylic acid] | 99.3 | 98.9
11 | O=C(O)c1ccc2c(c1)nc(-c1ccc3nc(-c4ccc(F)cc4)c(-c4ccc(F)cc4)nc3c1)n2C1CCCCC1 [Compound 409, 2-[2,3-Bis-(4-fluorophenyl)quinoxalin-6-yl]-1-cyclohexyl-1H-benzimidazole-5-carboxylic acid] | 97.9 | 99.9
12 | O=C(c1ccc2c(c1)nc(-c1cc3ccc(-c4ccccc4-c4ccccc4)nc3cc1F)n2C1CCCCC1)N1CCC(O)CC1 [Compound 410] | 84.3 | 88.6
13 | O=C(O)c1ccc2c(c1)nc(-c1ccc3nc(-c4cc5cccc(O)c5o4)ccc3c1)n2C1CCCCC1 [Compound 411, 1-cyclohexyl-2-[2-(7-hydroxy-benzofuran-2-yl)-quinolin-6-yl]-1H-benzoimidazole-5-carboxylic acid] | 78.1 | 91.5
14 | O=C(O)c1ccc2c(c1)nc(-c1ccc3nc(-c4ccc5c(c4)OCO5)ccc3c1)n2C1CCCCC1 [Compound 412, 2-(2-benzo[1,3]dioxol-5-yl-quinolin-6-yl)-1-cyclohexyl-1H-benzoimidazole-5-carboxylic acid] | 98.4 | 100
15 | O=C(O)c1ccc2c(c1)nc(-c1ccc3nc(-c4cc5ccccc5o4)ccc3c1)n2C1CCCCC1 [Compound 413, 2-(2-benzofuran-2-yl-quinolin-6-yl)-1-cyclohexyl-1H-benzoimidazole-5-carboxylic acid] | 95.5 | 100
16 | O=C(O)c1ccc2c(c1)nc(-c1ccc3nc(-c4cccc(OCCCN5CCCC5)c4)ccc3c1)n2C1CCCCC1 [Compound 414, 1-Cyclohexyl-2-{2-[3-(3-pyrrolidin-1-yl-propoxy)-phenyl]-quinolin-6-yl}-1H-benzoimidazole-5-carboxylic acid] | 93.4 | 96.8
17 | O=C(O)c1ccc(-c2ccc(Cl)cc2)c(-c2ccc3cc(-c4nc5cc(C(=O)O)ccc5n4C4CCCCC4)ccc3n2)c1 [Compound 415, 2-[2-(4-Carboxy-4′-chloro-biphen-2-yl)-quinolin-6-yl]-1-cyclohexyl-1H-benzoimidazole-5-carboxylic acid] | 101 | 102
18 | Cc1nc(-c2ccc(Cl)cc2)sc1-c1ccc2cc(-c3nc4cc(C(=O)O)ccc4n3C3CCCCC3)ccc2n1 [Compound 416, 2-{2-[2-(4-chloro-phenyl)-4-methyl-thiazol-5-yl]-quinolin-6-yl}-1-cyclohexyl-1H-benzoimidazole-5-carboxylic acid] | 101 | 103
19 | Cc1cc(-c2nc3cc(C(=O)O)ccc3n2C2CCCCC2)cc2ccc(-c3ccccc3-c3ccc(Cl)cc3)nc12 [Compound 417, 2-[2-(4′-Chloro-biphen-2-yl)-8-methyl-quinolin-6-yl]-1-cyclohexyl-1H-benzoimidazole-5-carboxylic acid] | 97.8 | 98
20 | Cc1cc(-c2ccc3cc(-c4nc5cc(C(=O)O)ccc5n4C4CCCCC4)ccc3n2)c(O)c([N+](=O)[O-])c1 [Compound 418, 1-cyclohexyl-2-[2-(2-hydroxy-5-methyl-3-nitro-phenyl)-quinolin-6-yl]-1H-benzoimidazole-5-carboxylic acid] | 104 | 103
21 | COc1ccc(-c2ccc(C(=O)N3CCCC3)cc2-c2ccc3cc(-c4nc5cc(C(=O)O)ccc5n4C4CCCCC4)ccc3n2)cc1OC [Compound 419, 1-Cyclohexyl-2-{2-[3′,4′-dimethoxy-4-(pyrrolidine-1-carbonyl)biphen-2-yl]quinolin-6-yl}-1H-benzimidazole-5-carboxylic acid] | 101 | 101
22 | COc1ccc(-c2cccc([N+](=O)[O-])c2)c(-c2ccc3cc(-c4nc5cc(C(=O)O)ccc5n4C4CCCCC4)ccc3n2)c1 [Compound 420, 1-cyclohexyl-2-[2-(4-methoxy-3′-nitro-biphen-2-yl)-quinolin-6-yl]-1H-benzoimidazole-5-carboxylic acid] | 98.3 | 98.3
